Values quoted from earlier work in the PKSmart pharmacokinetics tables (Seal et al. 2025).

Assay: Lombardo, Berellini, Obach 2018, Drug Metab Dispos 46:1466, doi 10.1124/dmd.118.082966
Conditions: human; for MRT / Vd / clearance / half-life: in vivo, iv; for fraction unbound: plasma

Row | Structure (SMILES) | MRT [h] | Vd [L/kg] | clearance [mL/min/kg] | half-life [h] | fraction unbound
1 | CNC(=O)c1cnn(-c2nc(N)c3ncn([C@@H]4O[C@H](CO)[C@@H](O)[C@H]4O)c3n2)c1 | 2.1 | 0.94 | 7.3 | 2 | 0.7
2 | CCCNC(C)C(=O)Nc1c(C)csc1C(=O)OC (stereo not given) | 1.04 | 7.7 | 127 | 0.98 | 0.46
3 | NC1CCN(c2c(F)cc3c(=O)c(C(=O)O)cn(C4CC4)c3c2Cl)C1 (stereo not given) | 6.7 | 1.9 | 4.7 | 5.4 | 
4 | CCCCc1nc(Cl)c(CO)n1Cc1ccc(-c2ccccc2-c2nnn[nH]2)cc1 | 0.75 | 0.37 | 8.2 | 1.8 | 
5 | CCOC(=O)C1=C[C@]2(CC)CCCN3CCc4c(n1c1ccccc41)[C@@H]32 | 5.68 | 2.08 | 6.1 | 4.83 | 0.02
6 | O=C(Cc1cccs1)NC1C(=O)N2C(C(=O)[O-])=C(C[n+]3ccccc3)CS[C@H]12 (stereo not given in full) | 2.3 | 0.46 | 3.3 | 1.5 | 0.8
7 | Cn1c(COP(=O)(NCCBr)NCCBr)cnc1[N+](=O)[O-] | 0.72 | 0.64 | 14.8 | 1 | 
8 | Nc1c2c(nc3ccccc13)CCCC2 | 3.3 | 11 | 56 | 3.3 | 0.25
9 | C[C@@H]1C=C2CC(=O)CCC2[C@H]2CC[C@]3(C)[C@@H](O)CC[C@H]3[C@H]12 (stereo not given in full) | 0.67 | 0.8 | 20 | 0.65 | 
10 | CC#C[C@]1(O)CC[C@H]2C3=C(C4=C(CC3)CC(=O)CC4)C(c3ccc(N(C)C)cc3)C[C@@]21C (stereo not given in full) | 15.7 | 0.45 | 0.5 | 16.6 | 0.02
11 | CC(=O)Nc1ccc(OC[C@H](O)CNC(C)C)cc1 |  |  | 2.28 | 12.2 | 0.93
12 | Cn1c(=O)c2nc[nH]c2n(C)c1=O |  |  |  | 7.2 | 
13 | N=C(N)NCCCC(NC(=O)C1CCCN1C(=O)C1CSSCCC(=O)NC(Cc2ccc(O)cc2)C(=O)NC(Cc2ccccc2)C(=O)NC(CCC(N)=O)C(=O)NC(CC(N)=O)C(=O)N1)C(=O)NCC(N)=O (stereo not given) | 3.6 | 0.3 | 1.4 | 3 | 
14 | CN(C)[C@@H]1C(O)=C(C(=O)NCN2CCCC2)C(=O)[C@@]2(O)C(O)=C3C(=O)c4c(O)cccc4[C@@](C)(O)[C@H]3C[C@@H]12 | 9.3 | 0.54 | 0.97 | 8.8 | 0.5
15 | C=CCN(C1=NCCN1)c1c(Cl)cccc1Cl | 3.77 | 2.72 | 12 | 3.14 | 0.4
16 | CCN(CC)CCNC(=O)c1cc(S(C)(=O)=O)ccc1OC | 3.8 | 1.1 | 4.7 | 3.2 | 
17 | CCC(=O)C1(c2cccc(O)c2)CCN(C)CC1 | 0.87 | 0.48 | 9.2 | 2.3 | 
18 | COc1cccc2c1C(=O)c1c(O)c3c(c(O)c1C2=O)C[C@@](O)(C(C)=O)C[C@@H]3O[C@H]1C[C@H](N)[C@H](O)[C@H](C)O1 | 11.2 | 32 | 47.6 | 14.2 | 0.06

Row | Structure (SMILES) | MRT [h] | Vd [L/kg] | clearance [mL/min/kg] | half-life [h] | fraction unbound
19 | C#CCN(Cc1cc2c(=O)nc(C)[nH]c2cc1C)c1ccc(C(=O)NC(CCc2nnn[nH]2)C(=O)O)c(F)c1 (stereo not given) | 30.4 | 0.53 | 0.29 | 78.5 | 0.01
20 | CC(=O)N1CCN([C@H]2CCN(C(=O)N(C)[C@H](C)c3cc(C(F)(F)F)cc(C(F)(F)F)c3)[C@@H](c3ccc(F)cc3C)C2)CC1 | 15 | 2.77 | 3.07 | 15.6 | 1
21 | CN(C)CCN1C(=O)c2cccc3cc(N)cc(c23)C1=O | 6.34 | 7.33 | 19.3 | 4.78 | 
22 | NC(=O)N1C(=O)C(C(=O)c2cccs2)c2cc(Cl)ccc21 (stereo not given) | 31.6 | 0.11 | 0.058 | 22.7 | 0.01
23 | CC(=O)Nc1c(I)c(C(=O)O)c(I)c(N(C)C(C)=O)c1I | 1 | 0.17 | 2.7 | 1.3 | 1
24 | O=C(O[C@H]1CN2CCC1CC2)N1CCc2ccccc2[C@@H]1c1ccccc1 | 65 | 8.2 |  | 52 | 
25 | N[C@@H]1CN(c2c(F)cc3c(=O)c(C(=O)O)cn([C@@H]4C[C@@H]4F)c3c2Cl)CC12CC2 | 6.7 | 1.5 | 3.7 | 6.6 | 
26 | C=CC[N@@+]12CC[C@@]34c5ccccc5N5C=C6[C@H]7C[C@H]8[C@@]9(CC[N@@+]8(CC=C)C/C7=C/CO)c7ccccc7N(C=C([C@@H](C[C@@H]31)/C(=C\CO)C2)[C@H]54)[C@@H]69 | 4.1 | 0.32 | 1.3 | 3.6 | 
27 | COc1cc(F)ccc1Cn1ccc2c3c(ncc21)C(=O)N(O)CC3 | 3.95 | 5.7 | 24 | 3.8 | 0.08
28 | O=C(O)c1cc(N=Nc2ccc(O)c(C(=O)O)c2)ccc1O | 0.97 | 0.07 | 1.2 | 0.9 | 0.01
29 | CO[C@@H]1C[C@@](C)(O)Cc2cc3c(c(O)c21)C(=O)c1c(O)cc2c(c1C3=O)O[C@@H]1O[C@]2(C)[C@@H](O)[C@@H](N(C)C)[C@@H]1O | 13.1 | 9.14 | 11.6 | 13.2 | 
30 | C[C@@H](Cc1ccccc1)NC(=O)C(N)CCCCN (stereo not given in full) | 0.6 | 0.6 | 17 | 1.2 | 
31 | CC(C)C1C(=O)NC(CCCNC(=N)N)C(=O)NCC(=O)NC(CC(=O)O)C(=O)NC(Cc2ccccc2)C(=O)N1C (stereo not given) | 3.67 | 0.26 | 1.18 | 3.6 | 
32 | COc1c(N2C[C@@H](C)C[C@H](N)C2)ccc2c(=O)c(C(=O)O)cn(C3CC3)c12 | 8.4 | 1.9 | 3.8 | 13.5 | 
33 | COc1cc(OC)c(/C=C/S(=O)(=O)Cc2ccc(OC)c(NCC(=O)O)c2)c(OC)c1 | 1.2 | 0.11 | 1.51 | 0.95 | 
34 | CCc1c2c(nc3ccc(OC(=O)CCC(=O)Oc4c(C)c(C)c5c(c4C)CC[C@@](C)(CCC[C@H](C)CCC[C@H](C)CCCC(C)C)O5)cc13)-c1cc3c(c(=O)n1C2)COC(=O)[C@]3(O)CC | 3.34 | 0.15 | 0.81 | 3.77 | 
35 | OCCN(CCc1c[nH]c2ccccc12)Cc1ccc(/C=C/C(O)=NO)cc1 | 4.78 | 2.17 | 7.6 | 12.4 | 0.23
36 | COc1ccc2c(c1)N(C[C@H](C)CN(C)C)c1ccccc1S2 | 21 | 12 | 9.9 | 30 | 
